Test results: patent US5684151A, “1-arylsulphonyl, arylcarbonyl and 1-arylphosphonyl-3-phenyl-1,4,5,6-tetrahydropyridazines” (priority 1995, dated 1997)
Where two headings read alike, the source gives them in different places.

Legend:
[1] = tested on: mouse (MC3T3-E1) and human (TE-85) osteoblast-line cells; assay type: cell-based
Method in brief: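 Proliferation was read as ^3H-thymidine (0.4 μCi) uptake during a 4 h pulse, which started 20 h after compound addition. Before dosing, cells sat 24 h in 0.1% FBS. Values are % times control (100%).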

[2] = target: T1, progestin receptor from rabbit uterus (Oryctolagus cuniculus, UniProt P06186); experiment: Progestin receptor binding (3H-R5020 displacement); conditions: rabbit uterine cytosol, 4° C., 18 h, read-out: IC50: Binding affinity for the progestin receptor from rabbit uterus
T1 construct: Cytosolic progestin receptor were obtained by mixing rabbit uterine tissue with a Tris buffer; from tissue; host or cells: rabbit uterus cytosol
T1 sequence (P06186 whole entry): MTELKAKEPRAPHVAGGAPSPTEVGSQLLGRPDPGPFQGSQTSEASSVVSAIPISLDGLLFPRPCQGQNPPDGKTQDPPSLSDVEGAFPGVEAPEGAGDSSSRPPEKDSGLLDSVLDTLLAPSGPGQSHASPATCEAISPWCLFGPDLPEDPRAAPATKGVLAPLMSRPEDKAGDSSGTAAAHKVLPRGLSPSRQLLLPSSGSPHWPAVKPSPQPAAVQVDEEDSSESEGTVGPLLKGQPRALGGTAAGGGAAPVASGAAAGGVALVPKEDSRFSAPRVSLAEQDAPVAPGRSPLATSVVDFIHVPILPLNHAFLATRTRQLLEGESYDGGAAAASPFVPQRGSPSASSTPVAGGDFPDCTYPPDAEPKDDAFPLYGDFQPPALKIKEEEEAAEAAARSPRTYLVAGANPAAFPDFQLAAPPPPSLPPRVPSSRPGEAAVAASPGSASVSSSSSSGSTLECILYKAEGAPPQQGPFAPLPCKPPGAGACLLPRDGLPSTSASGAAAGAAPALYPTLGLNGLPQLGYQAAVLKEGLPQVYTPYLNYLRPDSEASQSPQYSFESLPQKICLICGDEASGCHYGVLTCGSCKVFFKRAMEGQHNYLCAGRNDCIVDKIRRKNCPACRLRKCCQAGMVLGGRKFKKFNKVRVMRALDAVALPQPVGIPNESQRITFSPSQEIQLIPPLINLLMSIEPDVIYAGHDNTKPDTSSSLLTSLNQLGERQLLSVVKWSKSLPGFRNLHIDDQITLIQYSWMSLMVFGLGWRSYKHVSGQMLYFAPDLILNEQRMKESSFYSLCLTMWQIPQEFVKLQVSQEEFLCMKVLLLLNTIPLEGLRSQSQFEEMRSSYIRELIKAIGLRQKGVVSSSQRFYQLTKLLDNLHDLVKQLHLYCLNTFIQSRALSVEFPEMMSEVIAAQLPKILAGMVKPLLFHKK
Method in brief: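 Displacement of the radioligand 3H-R5020 was measured in cytosol from homogenized rabbit uterus (pH 7.4 Tris/EDTA/DTT/molybdate buffer), with compounds at 5% final DMSO and about 18 h at 4 °C. Charcoal removed free ligand, scintillation counting quantified bound ligand, and IC50 was the concentration displacing half.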

Row | SMILES | Osteoblast Cell Proliferation, 3H-thymidine incorporation vs control (100%) ([1]; 10^-6) [%] | Osteoblast Cell Proliferation, 3H-thymidine incorporation vs control (100%) ([1]; 10^-7) [%] | Osteoblast Cell Proliferation, 3H-thymidine incorporation vs control (100%) ([1]; 10^-8) [%] | Osteoblast Cell Proliferation, 3H-thymidine incorporation vs control (100%) ([1]; 10^-9) [%] | Osteoblast Cell Proliferation, 3H-thymidine incorporation vs control (100%) ([1]; 10^-10) [%] | IC50 [2] [nM]
1 | O=S(=O)(c1ccc2ccccc2c1)N1CCCC(c2ccc(F)cc2)=N1 [Compound 25] | 87 | 106 | 101 | 99 | 90 | 49
2 | O=S(=O)(c1ccc(F)cc1F)N1CCCC(c2ccc(Cl)cc2)=N1 [Compound 32] | 89 | 103 | 105 | 111 | 118 | 45
3 | O=S(=O)(c1cc(C(F)(F)F)cc(C(F)(F)F)c1)N1CCCC(c2ccc(Cl)cc2)=N1 [Compound 33] | 96 | 107 | 117 | 127 | 152 | 9
4 | O=[N+]([O-])c1ccc(S(=O)(=O)N2CCCC(c3ccc(Cl)c(Cl)c3)=N2)cc1 [Compound 38] | 76 | 73 | 54 | 49 | 37 | 5.29
5 | O=S(=O)(c1ccccc1)N1CCCC(c2ccc(Cl)c(Cl)c2)=N1 [Compound 43] | 92 | 92 | 99 | 98 | 85 | 3.3
6 | COC(=O)c1ccccc1S(=O)(=O)N1CCCC(c2ccc(Cl)c(Cl)c2)=N1 [Compound 47] | 109 | 112 | 113 | 115 | 123 | 20.1
7 | O=S(=O)(c1ccc2ccccc2c1)N1CCCC(c2ccccc2)=N1 [Compound 51] | 119 | 120 | 144 | 126 | 158 | 203
8 | COc1ccc(C2=NN(S(=O)(=O)c3ccc(Cl)cc3)CCC2)cc1 [Compound 63] | 101 | 103 | 99 | 77 | 97 | 118
9 | COc1ccc(C2=NN(S(=O)(=O)c3ccccc3)CCC2)cc1 [Compound 64] | 116 | 115 | 121 | 128 | 137 | 550
10 | COc1ccc(C2=NN(S(=O)(=O)c3ccc4ccccc4c3)CCC2)cc1 [Compound 65] | 90 | 98 | 94 | 88 | 80 | 57
11 | CCCCc1ccc(C2=NN(S(=O)(=O)c3ccc(I)cc3)CCC2)cc1 [Compound 71] | 110 | 114 | 99 | 103 | 98 | 10000
12 | CCCCc1ccc(C2=NN(S(=O)(=O)c3ccc4ccccc4c3)CCC2)cc1 [Compound 72] | 113 | 119 | 129 | 120 | 123 | 10000
13 | O=S(=O)(c1ccc(Cl)c(Cl)c1)N1CCCC(c2ccc(Cl)c(C(F)(F)F)c2)=N1 [Compound 81] |  | 110 | 119 | 119 | 128 | 16.5
14 | O=S(=O)(c1ccc(Cl)cc1)N1CCCC(c2ccc(-c3ccccc3)cc2)=N1 [Compound 84] | 108 | 119 | 130 | 127 | 122 | 1000
15 | O=S(=O)(c1ccc2ccccc2c1)N1CCCC(c2ccc(-c3ccccc3)cc2)=N1 [Compound 85] | 99 | 80 | 76 | 54 | 48 | 1000
16 | O=S(=O)(c1ccccc1)N1CCCC(c2ccc(-c3ccccc3)cc2)=N1 [Compound 86] | 100 | 114 | 94 | 103 | 101 | 228
17 | Cc1ccc(S(=O)(=O)N2CCCC(c3ccc4c(c3)CCCC4)=N2)cc1 [Compound 87] | 120 | 115 | 125 | 117 | 127 | 82.2
18 | O=S(=O)(c1ccc(Cl)cc1)N1CCCC(c2ccc3c(c2)CCCC3)=N1 [Compound 88] | 97 | 109 | 89 | 74 | 62 | 10.2
19 | O=S(=O)(c1cc(Cl)ccc1Cl)N1CCCC(c2ccc3c(c2)CCCC3)=N1 [Compound 89] | 115 | 97 | 113 | 106 | 98 | 21.6
20 | O=S(=O)(c1ccccc1)N1CCCC(c2ccc3c(c2)CCCC3)=N1 [Compound 90] | 90 | 95 | 68 | 68 | 42 | 71.7
21 | O=S(=O)(c1ccc2ccccc2c1)N1CCCC(c2cccc(Cl)c2)=N1 [Compound 94] | 110 | 85 | 90 | 110 | 130 | 14.6
22 | O=S(=O)(c1ccc(I)cc1)N1CCCC(c2ccc3c(c2)CCCC3)=N1 [Compound 113] | 66 | 94 | 102 | 102 | 90 | 27.6
23 | CC1CC(c2ccccc2)=NN(S(=O)(=O)c2cc(Cl)ccc2Cl)C1 (stereo not shown) [Compound 144] |  | 112 | 122 | 117 | 108 | 71.7
